Values quoted from earlier work, collected in patent US20190000795A1, “Methods of using cannabinoids and/or molecular similars for modulating, waking-up and/or disabling cellular functions involved in causing disease -- reinvigorating metabolism with anandamide, 2-arachidonoylglycerol and similarly acting compounds” (priority 2017, published 2019).
Read-outs that look alike come from different tables or passages of the source.

Assays:
GPR55 = GPR55 (Homo sapiens, UniProt Q9Y2T6)
Complex 1 = details: for Complex 1 activity, rapid and transient increase: below threshold around 10 μM
mitochondrion [1] = tested on: mitochondrion
mitochondrion [2] = tested on: mitochondrion; remark: listed apart in the source

GPR55, sequence (Q9Y2T6 whole entry, species assumed): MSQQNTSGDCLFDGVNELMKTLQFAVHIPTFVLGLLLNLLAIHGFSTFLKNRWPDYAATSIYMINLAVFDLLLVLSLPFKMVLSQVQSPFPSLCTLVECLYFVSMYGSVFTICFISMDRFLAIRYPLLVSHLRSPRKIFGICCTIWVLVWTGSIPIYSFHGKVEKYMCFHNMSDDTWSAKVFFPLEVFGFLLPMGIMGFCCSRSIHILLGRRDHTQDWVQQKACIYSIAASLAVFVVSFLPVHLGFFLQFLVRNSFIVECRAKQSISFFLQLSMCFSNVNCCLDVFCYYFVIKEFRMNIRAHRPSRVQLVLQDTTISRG

Structure (SMILES)	GPR55 Ca2+ flux activation (GPR55)	O2 consumption at the mitochondrion (mitochondrion [2])	other results
CCCCC/C=C\C/C=C\C/C=C\C/C=C\CCCC(=O)OC(CO)CO [2AG, 2-arachidonoylglycerol]	not		
CCCCC/C=C\C/C=C\C/C=C\C/C=C\CCCC(=O)N[C@H](C)CO [methanandamide]	Ca^2+ flux activation		
CCCCCCC(C)(C)c1ccc([C@@H]2C[C@H](O)CC[C@H]2CCCO)c(O)c1 [CP 55 940]	not		
CCCCCCCCCCCCCCCC(=O)NCCO [PEA, palmitoylethanolamide]	not		
CCCCC/C=C\C/C=C\C/C=C\C/C=C\CCCC(=O)OCCN [O-AEA, O-arachidonoyl ethanolamine]	not		body temperature (mice): lowers body temperature
CCCCCCC(C)(C)c1cc(O)c2c(c1)OC(C)(C)[C@@H]1CC=C(CO)C[C@@H]21 [HU210]		decrease	threshold concentration of sudden decrease of Complex 1 activity (Complex 1): around 10 μM; Complex 1 activity, rapid and transient increase (Complex 1): 25%; effect on H2O2 production (mitochondrion [1]; between 2 and 10 μM): increase
CCCn1c(C)c(C(=O)c2cccc3ccccc23)c2ccccc21 [JWH015]	Ca^2+ flux activation		
CCCCCc1cc(O)c2c(c1)OC(C)(C)[C@@H]1CCC(C)=C[C@@H]21 [THC, delta-9 tetrahydrocannabinol]	Ca^2+ flux activation	decrease	threshold concentration of sudden decrease of Complex 1 activity (Complex 1): around 10 μM; Complex 1 activity, rapid and transient increase (Complex 1): 50%; Complex 2/3 inhibition, course of effect (Complex 2/3): more steady logarithmic concentration dependent effect; effect on H2O2 production (mitochondrion [1]; between 2 and 10 μM): increase
CCCCC/C=C\C/C=C\C/C=C\C/C=C\CCCC(=O)NCCO [AEA, N-arachidonoylethanolamine]	Ca^2+ flux activation	decrease	concentration range of steady logarithmic decline of Complex 1 activity (Complex 1): 5-200 μM; effect on H2O2 production (mitochondrion [1]): no effect
